In patent publication US12496289B2, “Methods of increasing magnesium bioavailability and absorption” (Balchem Corporation, priority 2020, dated 2025):

Legend:
Caco-2 cells [1] = experiment: Caco-2 cell viability with ascorbic acid (fluorescent probes); format: cell-based; conditions: 0, 5, 25, or 50 mM ascorbic acid for 240 min; cells propagated 14 days
Description: FIG. 5 depicts a graph illustrating the viability over time of cells incubated with various solutions. Caco-2 cells were propagated in T-75 tissue culture flasks for 14 days. The cells were then incubated with either 0, 5, 25, or 50 mM ascorbic acid for 240 min. Fluorescent probes were used to determine viability.
Experiments were performed to test the impact of various ascorbic acid concentrations on cell viability. Caco-2 cells were propagated in T-75 tissue culture flasks for 14 days. The cells were then incubated with either 0, 5, 25, or 50 mM ascorbic acid for 240 min. Fluorescent probes were used to determine viability.

Caco-2 cells [2] = experiment: Caco-2 in vitro magnesium transport assay; conditions: for Magnesium transport with increasing treatment concentration: 0, 5, 10, 15, 20, and 25 mg Mg (ascorbate or chloride)
Description: Caco-2 cells were used to model in vitro magnesium absorption of intestinal cells. […] Six different solutions, with magnesium and varying ratios of ascorbate were tested. Each solution comprised 20 mM of magnesium. Cells were exposed to one of the six solutions for 4 hours, then the basal media was analyzed for magnesium, using a colorimetric test.
Various magnesium solutions were tested to determine their impact on magnesium transport: magnesium ascorbate, magnesium bisglycinate, magnesium orotate, magnesium threonate, and magnesium malate (trihydrate and hexahydrate; abbreviated MgM3H20 or MgM6H20 respectively in FIG. 2). […] (see FIG. 2)
Six different treatment concentrations were tested: 0, 5, 10, 15, 20, and 25 mg Mg (ascorbate or chloride).

Compound	Cell viability (Caco-2 cells [1])	Magnesium transport with increasing treatment concentration (Caco-2 cells [2]; FIG. 3)	Magnesium transport compared with magnesium chloride at any given concentration tested (Caco-2 cells [2]; 0, 5, 10, 15, 20, and 25 mg Mg, FIG. 3)	Magnesium transport rate compared with other magnesium solutions (Caco-2 cells [2]; vs magnesium bisglycinate, orotate, threonate, malate (trihydrate and hexahydrate), FIG. 2)
O=C1O[C@H]([C@@H](O)CO)C(O)=C1O [ascorbic acid]	no conclusive evidence that ascorbic acid kills the cells	–	–	–
[Cl-].[Cl-].[Mg+2] [magnesium chloride, reference compound]	–	increased magnesium transport, in a linear fashion	–	–
magnesium ascorbate	–	significant jump in magnesium transport between the 10 mM treatment and the 15 mM treatment	greater magnesium transport than magnesium chloride	statistically significant higher transport rate than any other magnesium solution tested
